The text below walks through data of US9168259B2 (GRÜNENTHAL GMBH, priority 2010, dated 2015).

Molecules are shown by their SMILES.

The target of the test is T1, KCNQ2/3 channels (Homo sapiens, UniProt O43525+O43526).
T1 construct: expressed in transfected cells
The test is described as follows: Fluorescence assay using a voltage sensitive dye (fluorimetry). The test is classed as cell-based. The note with it: CHO-K1 cells expressing KCNQ2/3; for Emax: CHO-K1, plateau effect relative to saturated retigabine (50 μM) = 100%, negative values = antagonistic, read-out: Fluorimetry % efficacy (retigabine = 100%); for EC50: IC50 where % efficacy is negative, read-out: Fluorimetry EC50/IC50.

T1 sequence (O43526 whole entry): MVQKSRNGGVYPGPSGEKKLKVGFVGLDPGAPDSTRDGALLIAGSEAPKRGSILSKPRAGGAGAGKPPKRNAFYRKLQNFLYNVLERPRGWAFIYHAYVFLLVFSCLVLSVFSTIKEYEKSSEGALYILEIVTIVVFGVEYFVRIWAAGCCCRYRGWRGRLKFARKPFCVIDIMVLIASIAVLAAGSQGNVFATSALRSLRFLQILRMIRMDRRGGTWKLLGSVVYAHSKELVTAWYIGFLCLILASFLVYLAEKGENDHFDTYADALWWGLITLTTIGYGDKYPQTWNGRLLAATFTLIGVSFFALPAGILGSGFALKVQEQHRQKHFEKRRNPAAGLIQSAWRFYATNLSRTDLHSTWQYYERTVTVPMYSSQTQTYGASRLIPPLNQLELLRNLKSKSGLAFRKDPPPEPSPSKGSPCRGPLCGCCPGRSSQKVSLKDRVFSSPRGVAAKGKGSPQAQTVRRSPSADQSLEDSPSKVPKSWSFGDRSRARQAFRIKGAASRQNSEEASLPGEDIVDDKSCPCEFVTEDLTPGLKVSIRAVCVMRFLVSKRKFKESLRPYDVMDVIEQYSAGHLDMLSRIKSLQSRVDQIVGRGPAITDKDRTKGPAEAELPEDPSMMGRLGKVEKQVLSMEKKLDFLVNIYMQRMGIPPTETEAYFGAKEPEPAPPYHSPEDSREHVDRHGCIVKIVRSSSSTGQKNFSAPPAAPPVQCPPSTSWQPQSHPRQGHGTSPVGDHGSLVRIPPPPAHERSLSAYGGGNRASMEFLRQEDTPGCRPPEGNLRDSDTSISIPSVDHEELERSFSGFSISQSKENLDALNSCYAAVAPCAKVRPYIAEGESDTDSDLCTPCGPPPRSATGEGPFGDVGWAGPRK
T1 sequence (O43525 whole entry): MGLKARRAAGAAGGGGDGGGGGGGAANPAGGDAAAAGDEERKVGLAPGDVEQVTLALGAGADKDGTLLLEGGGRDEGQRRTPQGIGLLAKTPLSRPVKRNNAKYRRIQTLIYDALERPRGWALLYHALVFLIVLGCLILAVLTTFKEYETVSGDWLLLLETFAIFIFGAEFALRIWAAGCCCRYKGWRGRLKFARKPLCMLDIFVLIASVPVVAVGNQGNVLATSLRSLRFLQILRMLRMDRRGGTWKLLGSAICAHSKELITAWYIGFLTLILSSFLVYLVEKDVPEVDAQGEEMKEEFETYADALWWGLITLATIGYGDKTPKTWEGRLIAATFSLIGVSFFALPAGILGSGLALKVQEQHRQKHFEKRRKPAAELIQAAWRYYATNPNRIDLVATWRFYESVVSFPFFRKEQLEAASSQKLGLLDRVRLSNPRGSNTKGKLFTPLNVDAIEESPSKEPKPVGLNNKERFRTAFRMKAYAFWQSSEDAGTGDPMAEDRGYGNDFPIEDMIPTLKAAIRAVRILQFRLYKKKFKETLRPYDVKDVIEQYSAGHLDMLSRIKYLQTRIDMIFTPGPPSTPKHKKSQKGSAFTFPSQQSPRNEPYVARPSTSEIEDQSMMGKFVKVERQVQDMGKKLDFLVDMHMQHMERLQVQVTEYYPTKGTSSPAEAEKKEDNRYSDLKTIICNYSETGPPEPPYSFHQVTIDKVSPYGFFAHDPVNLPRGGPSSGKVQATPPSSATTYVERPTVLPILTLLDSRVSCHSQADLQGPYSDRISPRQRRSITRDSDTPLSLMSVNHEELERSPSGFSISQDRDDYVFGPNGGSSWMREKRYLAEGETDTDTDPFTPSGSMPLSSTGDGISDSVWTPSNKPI

For the compound `CCCc1nc(N2CCOCC2)cc(C)c1C(=O)NCCCC(C)(C)C` [Example 313, N-(4,4-Dimethyl-pentyl)-4-methyl-6-morpholin-4-yl-2-propyl-pyridine-3-carboxylic acid amide], the Emax is 229% and the EC50 was determined as 62 nM.
In the case of `Cc1cc(N2CCOCC2)nc(C(C)C)c1C(=O)NCCCC(C)(C)C` [Example 314, N-(4,4-Dimethyl-pentyl)-2-isopropyl-4-methyl-6-morpholin-4-yl-pyridine-3-carboxylic acid amide], the Emax amounted to 242% and the EC50 came out at 18 nM.
For `Cc1cc(N2CCOCC2)nc(C(C)C)c1C(=O)NCCCC(F)(F)F` [Example 315, 2-Isopropyl-4-methyl-6-morpholin-4-yl-N-(4,4,4-trifluoro-butyl)-pyridine-3-carboxylic acid amide], the Emax was determined as 187% and the EC50 was 314 nM.
For `Cc1cc(N2CCOCC2)nc(C(C)C)c1C(=O)NCc1cc(F)cc(F)c1` [Example 316, N-[(3,5-Difluoro-phenyl)-methyl]-2-isopropyl-4-methyl-6-morpholin-4-yl-pyridine-3-carboxylic acid amide], in that order: 160% and 29 nM.
On the same counts, the results for `Cc1cc(N2CCOCC2)nc(OC2COC2)c1C(=O)NCc1cccc(F)c1` [Example 317, N-[(3-Fluorophenyl)-methyl]-4-methyl-6-morpholin-4-yl-2-(oxetan-3-yloxy)-pyridine-3-carboxylic acid amide] are 116% and 1120 nM.
For `CCSc1nc(N2CCOCC2)cc(C)c1C(=O)NCCCC(C)(C)OC` [Example 318, 2-Ethylsulfanyl-N-(4-methoxy-4-methyl-pentyl)-4-methyl-6-morpholin-4-yl-pyridine-3-carboxylic acid amide], the Emax stood at 193% and the EC50 worked out at 2880 nM.
For `CCSc1nc(N2CCOCC2)cc(C)c1C(=O)NCCCC(C)(C)F` [Example 319, 2-Ethylsulfanyl-N-(4-fluoro-4-methyl-pentyl)-4-methyl-6-morpholin-4-yl-pyridine-3-carboxylic acid amide], in that order: 233% and 348 nM.
On to `CCCc1nc(N2CCOCC2)cc(C)c1C(=O)NCCCC(F)(F)F` [Example 320, 4-Methyl-6-morpholin-4-yl-2-propyl-N-(4,4,4-trifluoro-butyl)-pyridine-3-carboxylic acid amide], for which the Emax came out at 192% and the EC50 came out at 826 nM.
On to `CCCc1nc(N2CCOCC2)cc(C)c1C(=O)NCc1ccc(F)c(F)c1` [Example 321, N-[(3,4-Difluoro-phenyl)-methyl]-4-methyl-6-morpholin-4-yl-2-propyl-pyridine-3-carboxylic acid amide], for which the Emax came out at 162% and the EC50 stood at 83 nM.
For `CCCc1nc(N2CCOCC2)cc(C)c1C(=O)NCc1cc(F)cc(F)c1` [Example 322, N-[(3,5-Difluoro-phenyl)-methyl]-4-methyl-6-morpholin-4-yl-2-propyl-pyridine-3-carboxylic acid amide], in that order: 193% and 80 nM.
As to `CCCc1nc(N2CCOCC2)cc(C)c1C(=O)NCc1ccc(C(F)(F)F)cc1` [Example 323, 4-Methyl-6-morpholin-4-yl-2-propyl-N-[[4-(trifluoromethyl)-phenyl]-methyl]pyridine-3-carboxylic acid amide], the Emax came out at 130% and the EC50 is 102 nM.
As for `CCSc1nc(N2CCOCC2)cc(C)c1C(=O)NCC(=O)CC(C)(C)C` [Example 324, N-(4,4-Dimethyl-2-oxo-pentyl)-2-ethylsulfanyl-4-methyl-6-morpholin-4-yl-pyridine-3-carboxylic acid amide], the Emax came to 166% and the EC50 is 834 nM.
For the compound `CCSc1nc(N2CC3CCC(C2)O3)cc(C)c1C(=O)NCc1cccc(F)c1` [Example 325, 2-Ethylsulfanyl-N-[(3-fluorophenyl)-methyl]-4-methyl-6-(8-oxa-3-azabicyclo[3.2.1]octan-3-yl)-pyridine-3-carboxylic acid amide], the Emax turned out to be 153% and the EC50 was found to be 282 nM.
For `CCCc1nc(N2CCOCC2)cc(C)c1C(=O)NCc1ccc(Cl)cc1` [Example 326, N-[(4-Chlorophenyl)-methyl]-4-methyl-6-morpholin-4-yl-2-propyl-pyridine-3-carboxylic acid amide], in that order: 163% and 59 nM.
Turning to `Cc1cc(N2CCOCC2)nc(C(C)C)c1C(=O)NCc1ccc(Cl)cc1` [Example 327, N-[(4-Chlorophenyl)-methyl]-2-isopropyl-4-methyl-6-morpholin-4-yl-pyridine-3-carboxylic acid amide], the Emax worked out at 173% and the EC50 was found to be 50 nM.
For `Cc1cc(N2CCOCC2)nc(C2CC2)c1C(=O)NCCCC(C)(C)C` [Example 328, 2-Cyclopropyl-N-(4,4-dimethyl-pentyl)-4-methyl-6-morpholin-4-yl-pyridine-3-carboxylic acid amide], the Emax was determined as 230% and the EC50 is 44 nM.
Regarding `Cc1cc(N2CCOCC2)nc(C2CC2)c1C(=O)NCCCC(F)(F)F` [Example 329, 2-Cyclopropyl-4-methyl-6-morpholin-4-yl-N-(4,4,4-trifluoro-butyl)-pyridine-3-carboxylic acid amide], the Emax is 170% and the EC50 turned out to be 763 nM.
On to `Cc1cc(N2CCOCC2)nc(C2CC2)c1C(=O)NCc1cccc(F)c1` [Example 330, 2-Cyclopropyl-N-[(3-fluorophenyl)-methyl]-4-methyl-6-morpholin-4-yl-pyridine-3-carboxylic acid amide], for which the Emax came to 156% and the EC50 was determined as 168 nM.
Take `Cc1cc(N2CCOCC2)nc(C2CC2)c1C(=O)NCc1ccc(F)cc1` [Example 331, 2-Cyclopropyl-N-[(4-fluorophenyl)-methyl]-4-methyl-6-morpholin-4-yl-pyridine-3-carboxylic acid amide]: the Emax is 144% and the EC50 was found to be 148 nM.
With `Cc1cc(N2CCOCC2)nc(C2CC2)c1C(=O)NCc1ccc(F)c(F)c1` [Example 332, 2-Cyclopropyl-N-[(3,4-difluoro-phenyl)-methyl]-4-methyl-6-morpholin-4-yl-pyridine-3-carboxylic acid amide], the Emax worked out at 166% and the EC50 was found to be 109 nM.
Consider `Cc1cc(N2CCOCC2)nc(C2CC2)c1C(=O)NCc1cc(F)cc(F)c1` [Example 333, 2-Cyclopropyl-N-[(3,5-difluoro-phenyl)-methyl]-4-methyl-6-morpholin-4-yl-pyridine-3-carboxylic acid amide], for which the Emax is 169% and the EC50 turned out to be 98 nM.
Consider `Cc1cc(N2CCOCC2)nc(C2CC2)c1C(=O)NCc1ccc(C(F)(F)F)cc1` [Example 334, 2-Cyclopropyl-4-methyl-6-morpholin-4-yl-N-[[4-(trifluoromethyl)-phenyl]-methyl]-pyridine-3-carboxylic acid amide], for which the Emax worked out at 124% and the EC50 was determined as 96 nM.
For `Cc1cc(N2CCOCC2)nc(C2CC2)c1C(=O)NCc1ccc(Cl)cc1` [Example 335, N-[(4-Chlorophenyl)-methyl]-2-cyclopropyl-4-methyl-6-morpholin-4-yl-pyridine-3-carboxylic acid amide], the Emax stood at 162% and the EC50 was determined as 85 nM.
Consider `CCSc1nc(N2CCOCC2)cc(OC)c1C(=O)NCc1cccc(F)c1` [Example 336, 2-Ethylsulfanyl-N-[(3-fluorophenyl)-methyl]-4-methoxy-6-morpholin-4-yl-pyridine-3-carboxylic acid amide], for which the Emax was 183% and the EC50 came to 430 nM.
On the same counts, the results for `COCCSc1nc(N2CCOCC2)cc(C)c1C(=O)NCCCC(C)(C)C` [Example 337, N-(4,4-Dimethyl-pentyl)-2-(2-methoxy-ethylsulfanyl)-4-methyl-6-morpholin-4-yl-pyridine-3-carboxylic acid amide] are 237% and 117 nM.
With `CCSc1nc(N(CCCOC)Cc2ccc(F)cc2)cc(C)c1C(=O)NCc1cccc(F)c1` [Example 338, 2-Ethylsulfanyl-N-[(3-fluorophenyl)-methyl]-6-[(4-fluorophenyl)-methyl-(3-methoxy-propyl)-amino]-4-methyl-pyridine-3-carboxylic acid amide], the Emax worked out at 73% and the EC50 amounted to 320 nM.
For `CCSc1nc(N2CCOCC2)cc(C)c1C(=O)NCCC(C)C(C)(C)C` (centres unmarked) [Example 339, 2-Ethylsulfanyl-4-methyl-6-morpholin-4-yl-N-(3,4,4-trimethyl-pentyl)-pyridine-3-carboxylic acid amide], in that order: 202% and 37 nM.
Regarding `CCSc1nc(N2CCOCC2CCOC)cc(C)c1C(=O)NCc1cccc(F)c1` (centres unmarked) [Example 340, 2-Ethylsulfanyl-N-[(3-fluorophenyl)-methyl]-6-[3-(2-methoxy-ethyl)-morpholin-4-yl]-4-methyl-pyridine-3-carboxylic acid amide], the Emax is 152% and the EC50 amounted to 274 nM.
With `CC(=O)N(C)c1nc(N2CCOCC2)cc(C)c1C(=O)NCc1cccc(F)c1` [Example 341, 2-(Acetyl-methyl-amino)-N-[(3-fluorophenyl)-methyl]-4-methyl-6-morpholin-4-yl-pyridine-3-carboxylic acid amide], the Emax was found to be 22%.
Consider `CCSc1nc(N(CCOC)Cc2ccc(F)cc2)cc(C)c1C(=O)NCc1cccc(F)c1` [Example 342, 2-Ethylsulfanyl-N-[(3-fluorophenyl)-methyl]-6-[(4-fluorophenyl)-methyl-(2-methoxy-ethyl)-amino]-4-methyl-pyridine-3-carboxylic acid amide], for which the Emax amounted to 124% and the EC50 is 291 nM.
